Source: paper doi:10.1101/2025.05.22.655130v1, “Design to Data for mutants of β-glucosidase B from Paenibacillus polymyxa: L336M, L336A, L336S, L336H, D35E, D35W” (biorxiv, 2025)

Target: T1, β-glucosidase B (BglB) (Paenibacillus polymyxa, UniProt P22505)
T1 construct: previously cloned in pET29b+, expressed in E. coli, purified by nickel IMAC; band about 50 kD
Test: Michaelis-Menten, 4-nitrophenol release at […] nm
Format: biochemical
Details: 0.11-100 mM substrate, readings every minute for 15 min; triplicate

T1 sequence (P22505 whole entry): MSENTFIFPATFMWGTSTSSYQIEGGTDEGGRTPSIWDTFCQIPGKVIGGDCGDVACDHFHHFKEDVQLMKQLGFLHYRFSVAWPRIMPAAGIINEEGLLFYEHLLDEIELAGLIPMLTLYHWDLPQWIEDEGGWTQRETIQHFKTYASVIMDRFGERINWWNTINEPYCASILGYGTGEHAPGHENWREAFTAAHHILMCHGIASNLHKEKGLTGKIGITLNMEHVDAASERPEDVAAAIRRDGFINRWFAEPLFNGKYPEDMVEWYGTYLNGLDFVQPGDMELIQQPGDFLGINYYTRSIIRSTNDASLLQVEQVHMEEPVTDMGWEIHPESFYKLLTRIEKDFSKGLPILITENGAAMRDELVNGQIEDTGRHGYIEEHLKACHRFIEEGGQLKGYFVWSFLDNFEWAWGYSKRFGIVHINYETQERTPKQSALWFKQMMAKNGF

Km: 3.93 ± 0.26 mM
Compound: O=[N+]([O-])c1ccc(O[C@@H]2O[C@H](CO)[C@@H](O)[C@H](O)[C@H]2O)cc1 [pNPG, p-nitrophenyl-beta-D-glucoside]
